Assay results published in US20050101783A1, “N-(heterocycle-methyl)alkylamine derivative, process for producing the same, and bactericide” (priority 2000, published 2005).

Columns and labels:
Format in all cases: in vivo
cucumber powdery mildew = experiment: Preventive effect of cucumber powdery mildew (wettable powder sprayed on potted cucumber, preventive value); conditions: wettable powder suspended at 100 mg/l, sprayed on potted cucumber at 100 l/10 a; morbidity investigated 9th to 14th day after inoculation
Protocol: (Preventive Effect of Cucumber Powdery Mildew)
The wettable powders obtained by using each compound were diluted with water and were suspended at a predetermined concentration (100 mg/l) and the solution was sprayed over the first to second leaf stage-cucumber (variety: “Sagamihanpakufushinari”) cultivated by using a square plastic pot (size: 6.4 cm×6.4 cm) at a rate of 100 1/10 a.
After the sprayed leaves were air-dried, the spore was inoculated over the aforementioned air-dried leaves from the contracted leaves with a brush, and the contraction was performed in a glass greenhouse (temperature: 20 to 24° C. and relative humidity: 20 to 70 RH). The morbidity rate was investigated based on the same investigation standard as that in the preventive effect test of the cucumber gray mold on 9th to 14th day after the inoculation, and the preventive value was calculated according to the aforementioned formula 2.

cucumber gray mold = experiment: Preventive effect test of cucumber gray mold (wettable powder sprayed on potted cucumber, preventive value); conditions: wettable powder suspended at 250 mg/l, sprayed on potted cucumber at 100 l/10 a; morbidity investigated 4th to 6th day after inoculation
Protocol: (Preventive Effect Test of Cucumber Gray Mold)
The wettable powders obtained by using each compound were diluted with water and were suspended at a predetermined concentration (250 mg/l) and the solution was sprayed over the first to second leaf stage-cucumber (variety: “Sagamihanpakufushinari”) cultivated by using a square plastic pot (size: 6.4 cm×6.4 cm) at a rate of 100 1/10 a.
After the sprayed leaves were air-dried, a paper disk where the solution of the spore of the gray mold suspended with water was impregnated was put on the aforementioned sprayed leaves, and the leaves were contracted in a glass greenhouse (temperature: 20 to 24° C. and relative humidity: 20 to 70 RH). The morbidity rate was investigated based on the following investigation standard on 4th to 6th day after the inoculation and the preventive value was calculated according to the following formula 2.

[1] = test system: Erysiphe graminis f. sp tritici; experiment: Preventive effect test of wheat powdery mildew (wettable powder sprayed on potted wheat, preventive value); conditions: wettable powder suspended at 250 mg/l, sprayed on potted wheat at 100 l/10 a; morbidity investigated 9th to 14th day after inoculation
Protocol: (Preventive Effect Test of Erysiphe graminis f. sp […])
The wettable powders obtained by using each compound were diluted with water and were suspended at a predetermined concentration (250 mg/l) and the solution was sprayed over the first to second leaf stage-wheat (variety. Agriculture and Forestry No. 64) cultivated by using a square plastic pot (size: 6.4 cm×6.4 cm) at a rate of 100 1/10 a (are).
After the sprayed leaves were air-dried, the suspension of the spore of Erysiphe graminis f. sp tritici germ sampled from the contracted leaves were sprayed and inoculated over the sprayed leaf after air-dried, the leaves were kept at 20 to 24° C. under a high-humidity condition for 24 hours, then, the leaves were subjected to still standing in a greenhouse (temperature: 20 to 24° C. and relative humidity: 20 to 70 RH). The morbidity rate was investigated based on the following investigation standard on 9th to 14th day after the inoculation and the preventive value was calculated according to the following formula 1.

Row | Structure (SMILES) | Preventive Value (%) (cucumber powdery mildew) | Preventive Value (%) (cucumber gray mold) | Preventive Value (%) [1] [%]
1 | CC(Cc1ccc(Cl)cc1Cl)CN(C)Cc1ccc(Cl)nc1 (stereo not drawn) [Compound (a), 6-chloro-N-methyl-N-[2-methyl-3-(2,4-dichlorophenyl)propyl]-3-pyridylmethylamine, reference compound] | 70 | 80 | 60
2 | CC(Cc1cccc(Cl)c1)CN(C)Cc1ccc(Cl)nc1 (stereo not drawn) [Compound (b), 6-chloro-N-methyl-N-[2-methyl-3-(3-chlorophenyl)propyl]-3-pyridylmethylamine, reference compound] | 80 | 30 | 70
3 | CN(Cc1cccnc1)CC(C)(C)Cc1ccc(C(C)(C)C)cc1 [Compound I-16] |  | 100 | 
4 | CN(Cc1ccc(F)nc1)CC(C)(C)Cc1ccc(C(C)(C)C)cc1 [Compound I-19] | 100 | 100 | 100
5 | CN(Cc1cccnc1Cl)CC(C)(C)Cc1ccc(C(C)(C)C)cc1 [Compound I-20] |  | 100 | 
6 | Cc1ncc(CN(C)CC(C)(C)Cc2ccc(C(C)(C)C)cc2)cn1 [Compound I-21] |  | 100 | 
7 | CN(Cc1ccc(Cl)nc1)CC(C)(C)Cc1ccc(C(C)(C)C)cc1 [Compound I-25] |  | 100 | 
8 | CC(C)Oc1cccc(CC(C)(C)CN(C)Cc2ccc(Cl)nc2)c1 [Compound I-27] |  |  | 100
9 | CN(Cc1ccc(Cl)nc1)CC(C)(C)Cc1ccc(Cl)cc1 [Compound I-28] |  | 100 | 100
10 | CN(Cc1ccc(Cl)nc1)CC(C)(C)Cc1cccc(Cl)c1 [Compound I-29] |  | 100 | 
11 | CN(Cc1ccc(Cl)nc1)CC(C)(C)Cc1ccc(Cl)cc1Cl [Compound I-31] |  | 100 | 
12 | CN(Cc1ccc(Cl)nc1)CC(C)(C)Cc1cc(Cl)ccc1Cl [Compound I-32] |  | 100 | 
13 | CN(Cc1ccc(Cl)nc1)CC(C)(C)Cc1ccc(Cl)c(Cl)c1 [Compound I-33] |  | 100 | 
14 | CN(Cc1ccc(Cl)nc1)CC(C)(C)Cc1cc(Cl)cc(Cl)c1 [Compound I-34] |  | 100 | 
15 | CN(Cc1ccc(Cl)nc1)CC(C)(C)Cc1ccc(Oc2ccccc2)cc1 [Compound I-35] |  | 100 | 
16 | CN(Cc1ccc(Cl)nc1)CC(C)(C)Cc1cccc(Oc2ccccc2)c1 [Compound I-36] |  | 100 | 
17 | CN(Cc1ccc(Cl)nc1)CC(C)(C)Cc1ccc(F)c(Oc2ccccc2)c1 [Compound I-38] |  | 100 | 
18 | Cc1ccc(Oc2cccc(CC(C)(C)CN(C)Cc3ccc(Cl)nc3)c2)cc1 [Compound I-39] |  | 100 | 
19 | CN(Cc1ccc(Cl)nc1)CC(C)(C)Cc1cccc(Oc2cccc(C(F)(F)F)c2)c1 [Compound I-40] |  | 100 | 
20 | CN(Cc1ccc(Cl)nc1)CC(C)(C)Cc1cccc(OC(F)(F)F)c1 [Compound I-46] |  | 100 | 
21 | CN(Cc1ccc(Cl)nc1)CC(C)(C)Cc1cccc(OC(F)(F)C(F)F)c1 [Compound I-48] |  | 100 | 
22 | CN(Cc1ccc(Cl)nc1)CC(C)(C)Cc1ccc2c(c1)OC(F)(F)O2 [Compound I-49] | 100 |  | 100

Row | Structure (SMILES) | Preventive Value (%) (cucumber powdery mildew) | Preventive Value (%) (cucumber gray mold) | Preventive Value (%) [1] [%]
23 | CC(CCc1ccc(C(C)(C)C)cc1)CN(C)Cc1ccc(Cl)nc1 (stereo not drawn) [Compound I-50] |  | 100 | 
24 | CN(Cc1ccc(Cl)nc1)CC(C)(C)CCc1ccc(C(C)(C)C)cc1 [Compound I-51] |  | 100 | 
25 | CC(CCCc1ccc(C(C)(C)C)cc1)CN(C)Cc1ccc(Cl)nc1 (stereo not drawn) [Compound I-52] |  | 100 | 
26 | CC(CCc1cccc(Oc2ccccc2)c1)CN(C)Cc1ccc(Cl)nc1 (stereo not drawn) [Compound I-54] |  | 100 | 
27 | CN(Cc1ccc(Cl)nc1)CC(C)(C)CCc1cccc(Oc2ccccc2)c1 [Compound I-55] | 100 |  | 
28 | CC(CCc1ccc(Cl)cc1Cl)CN(C)Cc1ccc(Cl)nc1 (stereo not drawn) [Compound I-56] | 100 |  | 100
29 | CC(CC1CCC(C(C)(C)C)CC1)CN(C)Cc1ccc(Cl)nc1 (stereo not drawn) [Compound I-62, N-[3-(4-t-butylcyclohexyl)-2-methylpropyl]-6-chloro-N-methyl-3-pyridylmethylamine] |  | 100 | 100
30 | CN(Cc1ccc(Cl)nc1)CC(C)(C)CC1CCC(C(C)(C)C)CC1 (stereo not drawn) [Compound I-63] |  | 100 | 
31 | CC(CCC1CCC(C(C)(C)C)CC1)CN(C)Cc1ccc(Cl)nc1 (stereo not drawn) [Compound I-64] |  | 100 | 
32 | CC(CCCC1CCC(C(C)(C)C)CC1)CN(C)Cc1ccc(Cl)nc1 (stereo not drawn) [Compound I-66] |  | 100 | 
33 | CN(Cc1ccc(Cl)nc1)CC(C)(C)Cc1ccc(OC(C)(C)C)cc1 [Compound I-73] | 100 | 100 | 100
34 | CC(C)Oc1ccc(CC(C)(C)CN(C)Cc2ccc(Cl)nc2)cc1 [Compound I-74] | 100 | 100 | 100
35 | CN(Cc1ccc(Cl)nc1)CC(C)(C)Cc1ccc(OCC(F)(F)F)cc1 [Compound I-82] | 100 | 100 | 100
36 | CN(Cc1ccc(Cl)nc1)CC(C)(C)Cc1ccc(OC(F)(F)C(F)F)cc1 [Compound I-83] | 100 | 100 | 100
37 | CN(Cc1ccc(Cl)nc1)CC(C)(C)Cc1ccc(OCC(F)(F)C(F)F)cc1 [Compound I-84] | 100 | 100 | 100
38 | CN(Cc1ccc(Cl)nc1)CC(C)(C)Cc1ccc(OCC(F)(F)C(F)(F)F)cc1 [Compound I-85] | 100 | 100 | 100
39 | COCc1ccc(CC(C)(C)CN(C)Cc2ccc(Cl)nc2)cc1 [Compound I-88] | 100 | 100 | 100
40 | CCOCc1ccc(CC(C)(C)CN(C)Cc2ccc(Cl)nc2)cc1 [Compound I-89] | 100 | 100 | 100
41 | COC(C)c1ccc(CC(C)(C)CN(C)Cc2ccc(Cl)nc2)cc1 (stereo not drawn) [Compound I-95] | 100 | 100 | 100
42 | CCOC(C)c1ccc(CC(C)(C)CN(C)Cc2ccc(Cl)nc2)cc1 (stereo not drawn) [Compound I-96] | 100 | 100 | 100
43 | CON=C(C)c1ccc(CC(C)(C)CN(C)Cc2ccc(Cl)nc2)cc1 [Compound I-116] | 100 | 100 | 100
44 | CCON=C(C)c1ccc(CC(C)(C)CN(C)Cc2ccc(Cl)nc2)cc1 [Compound I-117] | 100 | 100 | 100
